In patent US11759462B2, “Spirocyclic compounds as tryptophan hydroxylase inhibitors” (priority 2013, dated 2023):

Target: T1, Recombinant human TPH1 (MBP tagged) (Homo sapiens, UniProt P17752)
T1 construct: cloning full length human TPH1 cDNA in to a bacterial pMAL-c5E expression vector; made in house; host or cells: E. coli BL21 (DE3)
T1 sequence (P17752 1-444): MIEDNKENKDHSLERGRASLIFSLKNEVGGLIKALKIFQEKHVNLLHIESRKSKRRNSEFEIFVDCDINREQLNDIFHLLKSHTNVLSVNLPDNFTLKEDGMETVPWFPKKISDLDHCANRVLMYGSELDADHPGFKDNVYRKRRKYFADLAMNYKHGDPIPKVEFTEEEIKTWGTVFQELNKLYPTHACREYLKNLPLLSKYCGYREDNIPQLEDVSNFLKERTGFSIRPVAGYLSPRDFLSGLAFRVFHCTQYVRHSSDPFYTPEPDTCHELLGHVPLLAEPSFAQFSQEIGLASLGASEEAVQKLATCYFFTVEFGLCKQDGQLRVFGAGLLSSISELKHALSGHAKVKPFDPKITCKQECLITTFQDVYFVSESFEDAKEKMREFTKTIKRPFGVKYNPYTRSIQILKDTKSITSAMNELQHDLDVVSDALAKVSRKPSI
Assay: TPH1 in vitro inhibition assay (kinetic fluorescence)
Assay type: biochemical
Details: read-out: TPH1 Range (TPH1 inhibition IC50)
Outline: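 Final mix: 15 nM MBP-TPH1, 30 μM Trp, 36 μM 6-methyltetrahydropterin, 25 μM ferrous ammonium sulfate, 50 mM MES pH 7.1, 1% DMSO, room temperature.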

`Nc1nc(O[C@H](c2ccc(-c3ccc(C(=O)NCCN4CCOCC4)cc3)cc2)C(F)(F)F)cc(N2CCC3(CC2)CN[C@H](C(=O)O)C3)n1` [Example 55dh, (S)-8-(2-amino-6-((R)-2,2,2-trifluoro-1-(4′-((2-morpholinoethyl)carbamoyl)-[1,1′-biphenyl]-4-yl)ethoxy)pyrimidin-4-yl)-2,8-diazaspiro[4.5]decane-3-carboxylic acid] was tested, and the IC50 was 50 to 300 nM.
Compound `CS(=O)(=O)c1ccc(-c2ccc([C@@H](Oc3cc(N4CCC5(CC4)CN[C@H](C(=O)O)C5)nc(N)n3)C(F)(F)F)cc2)cc1` [Example 55di, (S)-8-(2-amino-6-((R)-2,2,2-trifluoro-1-(4′-(methylsulfonyl)-[1,1′-biphenyl]-4-yl)ethoxy)pyrimidin-4-yl)-2,8-diazaspiro[4.5]decane-3-carboxylic acid] has an IC50 of 50 to 300 nM.
Compound `Nc1nc(O[C@H](c2ccc(-c3ccc(S(N)(=O)=O)cc3)cc2)C(F)(F)F)cc(N2CCC3(CC2)CN[C@H](C(=O)O)C3)n1` [Example 55dj, (S)-8-(2-amino-6-((R)-2,2,2-trifluoro-1-(4′-sulfamoyl-[1,1′-biphenyl]-4-yl)ethoxy)pyrimidin-4-yl)-2,8-diazaspiro[4.5]decane-3-carboxylic acid] has an IC50 of 50 to 300 nM.
`Nc1nc(O[C@H](c2ccc(-c3ccc(C(=O)N4CCNCC4)cc3)cc2)C(F)(F)F)cc(N2CCC3(CC2)CN[C@H](C(=O)O)C3)n1` [Example 55dl, (S)-8-(2-amino-6-((R)-2,2,2-trifluoro-1-(4′-(piperazine-1-carbonyl)-[1,1′-biphenyl]-4-yl)ethoxy)pyrimidin-4-yl)-2,8-diazaspiro[4.5]decane-3-carboxylic acid] was tested, and the IC50 was 50 to 300 nM.
Work on `CCCOc1ccc(-c2ccc([C@@H](Oc3cc(N4CCC5(CC4)CN[C@H](C(=O)O)C5)nc(N)n3)C(F)(F)F)cc2)cc1F` [Example 55dm, (S)-8-(2-amino-6-((R)-2,2,2-trifluoro-1-(3′-fluoro-4′-propoxy-[1,1′-biphenyl]-4-yl)ethoxy)pyrimidin-4-yl)-2,8-diazaspiro[4.5]decane-3-carboxylic acid] yielded an IC50 of 50 to 300 nM.
Compound `CCOc1ccc(-c2ccc([C@@H](Oc3cc(N4CCC5(CC4)CN[C@H](C(=O)O)C5)nc(N)n3)C(F)(F)F)cc2)cc1F` [Example 55dn, (S)-8-(2-amino-6-((R)-1-(4′-ethoxy-3′-fluoro-[1,1′-biphenyl]-4-yl)-2,2,2-trifluoroethoxy)pyrimidin-4-yl)-2,8-diazaspiro[4.5]decane-3-carboxylic acid] has an IC50 of 50 to 300 nM.
With `CCOc1ccc(-c2ccc([C@@H](Oc3cc(N4CCC5(CC4)CN[C@H](C(=O)O)C5)nc(N)n3)C(F)(F)F)cc2)cc1` [Example 55do, (S)-8-(2-amino-6-((R)-1-(4′-ethoxy-[1,1′-biphenyl]-4-yl)-2,2,2-trifluoroethoxy)pyrimidin-4-yl)-2,8-diazaspiro[4.5]decane-3-carboxylic acid] the IC50 was < 50 nM.
With `Nc1nc(O[C@H](c2ccc(-c3ccc4nnccc4c3)cc2)C(F)(F)F)cc(N2CCC3(CC2)CN[C@H](C(=O)O)C3)n1` [Example 55dp, (S)-8-(2-amino-6-((R)-1-(4-(cinnolin-6-yl)phenyl)-2,2,2-trifluoroethoxy)pyrimidin-4-yl)-2,8-diazaspiro[4.5]decane-3-carboxylic acid] the IC50 was < 50 nM.
In the case of `Nc1nc(O[C@H](c2ccc(-c3ccc4c(c3)CCCO4)cc2)C(F)(F)F)cc(N2CCC3(CC2)CN[C@H](C(=O)O)C3)n1` [Example 55dq, (S)-8-(2-amino-6-((R)-1-(4-(chroman-6-yl)phenyl)-2,2,2-trifluoroethoxy)pyrimidin-4-yl)-2,8-diazaspiro[4.5]decane-3-carboxylic acid], the IC50 is reported as < 50 nM.
With `COc1ccc(-c2ccc([C@@H](Oc3cc(N4CCC5(CC4)CN[C@H](C(=O)O)C5)nc(N)n3)C(F)(F)F)cc2)cc1F` [Example 55e, (S)-8-(2-amino-6-((R)-2,2,2-trifluoro-1-(3′-fluoro-4′-methoxy-[1,1′-biphenyl]-4-yl)ethoxy)pyrimidin-4-yl)-2,8-diazaspiro[4.5]decane-3-carboxylic acid] the IC50 was 50 to 300 nM.
For `Nc1nc(O[C@H](c2ccc(-c3ccc4cnsc4c3)cc2)C(F)(F)F)cc(N2CCC3(CC2)CN[C@H](C(=O)O)C3)n1` [Example 55f, (S)-8-(2-amino-6-((R)-1-(4-(benzo[d]isothiazol-6-yl)phenyl)-2,2,2-trifluoroethoxy)pyrimidin-4-yl)-2,8-diazaspiro[4.5]decane-3-carboxylic acid], the IC50 was 50 to 300 nM.
`Nc1nc(O[C@H](c2ccc(-c3ccc4cnoc4c3)cc2)C(F)(F)F)cc(N2CCC3(CC2)CN[C@H](C(=O)O)C3)n1` [Example 55g, (S)-8-(2-amino-6-((R)-1-(4-(benzo[d]isoxazol-6-yl)phenyl)-2,2,2-trifluoroethoxy)pyrimidin-4-yl)-2,8-diazaspiro[4.5]decane-3-carboxylic acid] was tested, and the IC50 was 300 to 3000 nM.
Compound `Nc1nc(O[C@H](c2ccc(-c3ccc4cn[nH]c4c3)cc2)C(F)(F)F)cc(N2CCC3(CC2)CN[C@H](C(=O)O)C3)n1` [Example 55h, (S)-8-(6-((R)-1-(4-(1H-indazol-6-yl)phenyl)-2,2,2-trifluoroethoxy)-2-aminopyrimidin-4-yl)-2,8-diazaspiro[4.5]decane-3-carboxylic acid] has an IC50 of 50 to 300 nM.
With `Cn1ncc2ccc(-c3ccc([C@@H](Oc4cc(N5CCC6(CC5)CN[C@H](C(=O)O)C6)nc(N)n4)C(F)(F)F)cc3)cc21` [Example 55i, (S)-8-(2-amino-6-((R)-2,2,2-trifluoro-1-(4-(1-methyl-1H-indazol-6-yl)phenyl)ethoxy)pyrimidin-4-yl)-2,8-diazaspiro[4.5]decane-3-carboxylic acid] the IC50 was < 50 nM.
For `Nc1nc(O[C@H](c2ccc(-c3ccc4sncc4c3)cc2)C(F)(F)F)cc(N2CCC3(CC2)CN[C@H](C(=O)O)C3)n1` [Example 55j, (S)-8-(2-amino-6-((R)-1-(4-(benzo[d]isothiazol-5-yl)phenyl)-2,2,2-trifluoroethoxy)pyrimidin-4-yl)-2,8-diazaspiro[4.5]decane-3-carboxylic acid], the IC50 was 50 to 300 nM.
`Nc1nc(O[C@H](c2ccc(-c3ccc4ncnn4c3)cc2)C(F)(F)F)cc(N2CCC3(CC2)CN[C@H](C(=O)O)C3)n1` [Example 55l, (S)-8-(6-((R)-1-(4-([1,2,4]triazolo[1,5-a]pyridin-6-yl)phenyl)-2,2,2-trifluoroethoxy)-2-aminopyrimidin-4-yl)-2,8-diazaspiro[4.5]decane-3-carboxylic acid] showed an IC50 of 50 to 300 nM.
`Nc1nc(O[C@H](c2ccc(-c3ccc4ccccc4c3)cc2)C(F)(F)F)cc(N2CCC3(CC2)CN[C@H](C(=O)O)C3)n1` [Example 55m, (S)-8-(2-amino-6-((R)-2,2,2-trifluoro-1-(4-(naphthalen-2-yl)phenyl)ethoxy)pyrimidin-4-yl)-2,8-diazaspiro[4.5]decane-3-carboxylic acid] was tested, and the IC50 was < 50 nM.
`COc1cc(-c2ccc([C@@H](Oc3cc(N4CCC5(CC4)CN[C@H](C(=O)O)C5)nc(N)n3)C(F)(F)F)cc2)ccc1C` [Example 55n, (S)-8-(2-amino-6-((R)-2,2,2-trifluoro-1-(3′-methoxy-4′-methyl-[1,1′-biphenyl]-4-yl)ethoxy)pyrimidin-4-yl)-2,8-diazaspiro[4.5]decane-3-carboxylic acid] showed an IC50 of 300 to 3000 nM.
For `COc1cc(C)cc(-c2ccc([C@@H](Oc3cc(N4CCC5(CC4)CN[C@H](C(=O)O)C5)nc(N)n3)C(F)(F)F)cc2)c1` [Example 55o, (S)-8-(2-amino-6-((R)-2,2,2-trifluoro-1-(3′-methoxy-5′-methyl-[1,1′-biphenyl]-4-yl)ethoxy)pyrimidin-4-yl)-2,8-diazaspiro[4.5]decane-3-carboxylic acid], the IC50 was 50 to 300 nM.
`COc1ccc(C)c(-c2ccc([C@@H](Oc3cc(N4CCC5(CC4)CN[C@H](C(=O)O)C5)nc(N)n3)C(F)(F)F)cc2)c1` [Example 55p, (S)-8-(2-amino-6-((R)-2,2,2-trifluoro-1-(5′-methoxy-2′-methyl-[1,1′-biphenyl]-4-yl)ethoxy)pyrimidin-4-yl)-2,8-diazaspiro[4.5]decane-3-carboxylic acid] gave an IC50 of 50 to 300 nM.
`COc1ccc(-c2ccc([C@@H](Oc3cc(N4CCC5(CC4)CN[C@H](C(=O)O)C5)nc(N)n3)C(F)(F)F)cc2)cc1OC` [Example 55q, (S)-8-(2-amino-6-((R)-1-(3′,4′-dimethoxy-[1,1′-biphenyl]-4-yl)-2,2,2-trifluoroethoxy)pyrimidin-4-yl)-2,8-diazaspiro[4.5]decane-3-carboxylic acid] was tested, and the IC50 was < 50 nM.
`COc1cc(-c2ccc([C@@H](Oc3cc(N4CCC5(CC4)CN[C@H](C(=O)O)C5)nc(N)n3)C(F)(F)F)cc2)ccc1C(=O)N1CCCC1` [Example 55r, (S)-8-(2-amino-6-((R)-2,2,2-trifluoro-1-(3′-methoxy-4′-(pyrrolidine-1-carbonyl)-[1,1′-biphenyl]-4-yl)ethoxy)pyrimidin-4-yl)-2,8-diazaspiro[4.5]decane-3-carboxylic acid] was tested, and the IC50 was 50 to 300 nM.
For `Nc1nc(O[C@H](c2ccc(-c3ccc4c(c3)COC4=O)cc2)C(F)(F)F)cc(N2CCC3(CC2)CN[C@H](C(=O)O)C3)n1` [Example 55s, (S)-8-(2-amino-6-((R)-2,2,2-trifluoro-1-(4-(1-oxo-1,3-dihydroisobenzofuran-5-yl)phenyl)ethoxy)pyrimidin-4-yl)-2,8-diazaspiro[4.5]decane-3-carboxylic acid], the IC50 was < 50 nM.
